# Results published in patent publication US20070141635A1, “Novel translocation assay” (priority 2003, published 2007).
# What was measured:
# [1] = test system: GLUT1; settings: Perini et al., Diabetes 53:41-52, 2004; cited from earlier work
# [2] = test system: GLUT4; settings: cited from earlier work
# [3] = test system: 3T3-L1 adipocytes expressing HA-GLUT4 WT; assay: Continuous anti-HA antibody uptake (GLUT4 recycling) experiment; format: cell-based
# Experimental: For continuous antibody uptake experiments, cells were incubated for 20 min with or without insulin, whereafter anti-HA (50 μg/ml) or non-relevant antibody was added. Cells that were used to determine the total amount of HA-GLUT4 were not incubated with antibody during this 37° C. incubation. After incubation, the cells were fixed and quenched as described above, and incubated for 20 min with 5% NSS and 0.1% saponin. Cells that were used to determine the total cellular amount of HA-GLUT4 were incubated for 60 min with anti-HA antibody or control antibody in PBS containing 2% NSS. All other cells were incubated with 2% NSS without antibody. Subsequently, the cells were incubated with ALEXA488-conjugated goat-anti-mouse antibody and ALEXA594-conjugated WGA, washed and analysed. The amount of specific anti-HA uptake was expressed as a percentage of total cellular immuno-reactive HA-GLUT4.
# To analyze the exchange of GLUT4 with the cell surface under steady state conditions, studies were performed in which live cells were incubated with anti-HA antibody at 37° C. (FIG. 5). […] 3T3-L1 adipocytes expressing HA-GLUT4 WT were stimulated for 2 h with 200 nM insulin in the presence of anti-HA antibody, washed extensively, incubated for 2 h without insulin and anti-HA, and incubated for a further 20 min in the absence (FIG. 5C) or presence (FIG. 5D) of 200 nM insulin.
# For quantification of anti-HA antibody uptake, cells were preincubated for 20 min in the presence or absence of insulin after which anti-HA antibody or control antibody was added for various times (FIG. 5E). Antibody uptake was determined by labeling cells with fluorescent secondary antibody after fixation. Antibody uptake was expressed as a percentage of post-fixation anti-HA labeling.
# To study this non-recycling GLUT4 pool in adipocytes, 3T3-L1 adipocytes expressing HA-GLUT4 WT were incubated at 37° C. in the continuous presence of anti-HA antibody. Cells were incubated with or without 200 nM insulin for 20 min, after which anti-HA antibody was added in the continued presence or absence of insulin. Cells were incubated further for up to 180 min, fixed, permeablilized, and incubated with fluorescent secondary antibody. The level of anti-HA antibody taken up by the cells was then expressed as a percentage of total post-fixation anti-HA labeling of permeablilized cells.
# [4] = test system: 3T3-L1 adipocytes expressing HA-GLUT4 WT; assay: Inducing GLUT4 translocation with insulin followed by sucrose; format: cell-based; settings: 0.3 or 0.6M sucrose for 2 hours after 20 minutes 200 nM insulin; serum free
# Experimental: 3T3-L1 adipocytes expressing HA-GLUT4 WT were serum starved for 2 hours at 37° C. Following 20 minutes insulin stimulation with 200 nM insulin, cells were incubated for additional 2 hours in serum free medium supplemented with 0.2% BSA and 0.3 or 0.6M sucrose. After post-fixation anti-HA immunolabeling the level of cell surface HA-GLUT4 levels was determined as a percentage of total HA-GLUT4 detected after cell lysis. […] Furthermore, increasing concentrations of sucrose induce more GLUT4 to translocate to the plasma membrane in the presence of reduced levels of insulin.
# [5] = test system: HA-GLUT4-expressing 3T3-L1 adipocytes; assay: Fluorescence-based HA-GLUT4 translocation assay (GLUT4 at plasma membrane as percentage of total) in adipocytes; format: cell-based
# Experimental: Retrovirally-transduced fibroblasts expressing HA-tagged GLUT 4 or a mutant therof were differentiated into adipocytes essentially as described above. These adipocytes were then subcultured for 30 hours. Insulin was then added at different time points, after which the cells were fixed in 3% formaldehyde. After washing and quenching with 50 mM glycine, cells were incubated for 20 min with 5% normal swine serum (NSS) in the absence or presence of 0.1% saponin to analyse the level of GLUT4 at the plasma membrane (PM) or the total cellular GLUT4 content, respectively. Cells were incubated for 60 min with a saturating concentration of either an antibody directed against the HA tag or a control non-relevant antibody (mouse IgG MOPC21) in PBS containing 2% NSS. After extensive washing, the cells were incubated for 20 min with 5% NSS in the presence or absence of 0.1% saponin to permeabilize all cells. Cells were incubated for 60 min with saturating concentrations of ALEXA488-conjugated goat-anti-mouse antibody (20 μg/ml) and ALEXA594-conjugated WGA (10 μg/ml) in PBS containing 2% NSS. After washing, fluorescence ([…]) was measured using the bottom-reading mode in a fluorescence microtiter plate reader (FLUOstar Galaxy, BMG Labtechnologies, Offenburg, Germany). The percentage of GLUT4 at the PM was calculated for each condition. ALEXA594-WGA fluorescence was used to correct for variation in cell density in each well.
# To determine the extent of insulin-induced GLUT4 translocation using the assay described supra, HA-GLUT4-expressing 3T3-L1 adipocytes grown in 96 well plates were incubated for 2 h in the absence of serum, whereafter 200 nM insulin was added at various time points and cell surface levels of HA-GLUT4 were analysed by indirect immunofluorescence labeling (FIG. 2B). Saturating levels of anti-HA and secondary antibodies were used to ensure that substantially all HA-GLUT4 molecules were labeled. A non-relevant antibody was used at the same concentration to determine the non-specific binding of the anti-HA antibody. Insulin stimulated the appearance of HA-GLUT4 at the PM with a half-time of about 2.5 min reaching a plateau by 12 min which was maintained for at least 60 min. No specific anti-HA labeling was detected in non-infected cells (FIG. 2A).
# [6] = test system: 3T3-L1 fibroblasts expressing HA-tagged GLUT4; assay: Fluorescence-based HA-GLUT4 translocation assay in fibroblasts; format: cell-based
# [7] = test system: 3T3-L1 adipocytes expressing HA-GLUT4; assay: Single cycle GLUT4 internalization experiment; format: cell-based
# Experimental: For single cycle internalization experiments cells were stimulated for 20 min with 200 nM insulin after starvation and washed on ice with ice-cold DMEM containing 20 mM HEPES pH 7.4 and 0.2% BSA. Cells were incubated with 100 nM wortmannin or 200 nM insulin and either anti-HA (25 μg/ml) or non-relevant antibody (MOPC21) in DMEM/HEPES/BSA for 1 h on ice. Wortmanin was added to abolish insulin signaling. […] Cells were washed extensively, then either 100 nM wortmanin or 200 nM insulin in DMEM/HEPES/BSA was added. The plate was then transferred to 37° C. and at different times, formaldehyde was added to the wells to a concentration of 3%. After 5 min the formaldehyde was washed away and residual amounts were quenched. The cells were incubated for 20 min with 5% NSS in the absence of saponin, labeled with ALEXA488-conjugated goat-anti-mouse antibody and ALEXA594-conjugated WGA, washed and analysed as described above.
# GLUT4 WT molecules that were labeled with anti-HA antibody on ice were rapidly cleared from the cell surface as indicated by the disappearance of GLUT4 at early time points after transfer of the cells from ice to 37° C. (FIG. 4). After approximately 5 min the level of GLUT4 at the PM reached steady state in the presence but not in the absence of insulin, indicating recycling of GLUT4 back to the PM in insulin-stimulated cells. […]
# [8] = test system: HA-GLUT4 expressing 3T3-L1 adipocytes; assay: Model of insulin resistance (chronic insulin stimulation, then acute insulin); format: cell-based; settings: for level of GLUT4 at the plasma membrane after chronic insulin: FIG. 12A
# Experimental: 3T3-L1 adipocytes retrovirally infected with GLUT4 (described in Example 1) were incubated 24 hours or 48 hours either with 600 nM insulin or with medium alone. After this chronic insulin stimulation (as indicated in FIG. 10) at 37° C. in a CO2 incubator, cells were washed and 200 nM insulin was added for additional 10 or 30 minutes. Cell surface levels of HA-GLUT4 were measured using the fluorescence based assay described supra and expressed as a percentage of total HA-GLUT4 detected in the cell. The experiment was also performed with the HA-GLUT4 TAIL mutant
# HA-GLUT4 expressing 3T3-L1 adipocytes were grown in 96 well plates, incubated for 2 hours or overnight in medium supplemented with 10% fetal calf serum or no serum. 200 nM insulin in case of acute stimulation and 600 nM insulin in case of chronic stimulation have been used. After overnight stimulation cells were washed and 200 nM fresh insulin was added for 10 or 30 mln.
compound,measurement,setting,value
"C[C@]12CC[C@H](O)CC1=CC[C@@H]1[C@@H]2CC[C@]2(C)C(=O)CC[C@@H]12 [DHEA, Dehydroepiandrosterone]",effect on levels of GLUT1 at the plasma membrane,[1],enhance levels of GLUT1 at the plasma membrane
"CO[C@@H]1C[C@@H](C[C@H]2CC[C@H](C)[C@H]([C@@H](C)C(=O)O)O2)O[C@]2(O[C@](C)([C@H]3CC[C@@](C)([C@@H]4O[C@@H]([C@H]5O[C@@](O)(CO)[C@H](C)C[C@@H]5C)C[C@@H]4C)O3)C[C@H]2C)[C@@H]1C [Nigericin, nigericin]",effect on insulin mediated GLUT4 translocation,"[2]; Chu et al., J Cell Biochem. 2002;85:83-91",inhibit insulin mediated GLUT4 translocation
C[C@@H]1C[C@@H]([C@H](O)CC2CC(=O)NC(=O)C2)C(=O)[C@@H](C)C1 [cycloheximide],GLUT4 that could not be labeled during antibody uptake,"[3]; 10 mg/ml cycloheximide for 2 h prior to the addition of antibody, FIG. 6F",30%
OC[C@H]1O[C@@](CO)(O[C@H]2O[C@H](CO)[C@@H](O)[C@H](O)[C@H]2O)[C@@H](O)[C@@H]1O [sucrose],level of HA-GLUT4 translocated to the plasma membrane,[4],dramatically increases
insulin,time for which plateau of HA-GLUT4 at the PM was maintained,[5]; 200 nM insulin,at least 60 min
same,time to plateau of HA-GLUT4 at the PM,[5]; 200 nM insulin after 2 h in the absence of serum,≤ 12 min
same,half-time of appearance of HA-GLUT4 at the PM,"[5]; 200 nM insulin after 2 h in the absence of serum, 96 well plates",about 2.5 min
same,effect of long-term insulin treatment on cell surface HA-GLUT4 levels,"[5]; 200 nM insulin for up to 3 hours, FIG. 6H",did not drastically down-regulate cell surface GLUT4 levels
same,level of GLUT4 at the PM as percentage of total specific fluorescence,"[5]; 200 nM insulin, basal value 4%",34%
same,increase in cell surface GLUT4 levels in response to insulin stimulation,"[5]; adipocytes, 200 nM insulin",~8 fold
same,time to maximum level of surface GLUT4,[6]; followed by rapid reduction,6 min
same,increase in surface GLUT4 above non-stimulated cells,[6]; maximum level,5 fold
same,effect on GLUT4 internalization rate,"[7]; 200 nM insulin versus 100 nM wortmannin (basal), GLUT4 WT and TAIL",unaffected
same,time until level of GLUT4 at the PM reached steady state,"[7]; in the presence of 200 nM insulin, after transfer from ice to 37° C.",approximately 5 min
same,HA-GLUT4 expressed in the cell that did not translocate to the membrane during the experiment,"[3]; 200 nM insulin, up to 180 min",approximately 30%
same,"HA-GLUT4 labeled by anti-HA antibody uptake, percentage of total post-fixation labeling","[3]; 200 nM insulin, up to 180 min, FIG. 6A",approximately 30%
same,size of the recycling pool of GLUT4,"[3]; different doses of insulin, FIG. 8",incrementally increased with increasing doses
same,levels of GLUT4 translocation after chronic insulin,"[8]; 600 nM insulin 24 or 48 h in the absence of serum (-serum or KRP), then 200 nM insulin",little more than basal levels
same,level of GLUT4 at the plasma membrane after chronic insulin,[8]; 600 nM insulin 24 h in the presence of serum,dramatically increased
same,level of GLUT4 at the plasma membrane after chronic insulin,[8]; 600 nM insulin 48 h in the presence of serum,suppressed
"margatoxin (TIINVKCTSPKQCLPPCKAQFGQSAGAKCMNGKCKCYPH; UniProt P40755 1-39, looked up)",effect on level of GLUT4 translocated to the plasma membrane,"[2]; suppression of Kv1.3 activity, Xu et al, Proc Natl Acad Sci USA. 101:3112-3117, 2004",increase the level of GLUT4 translocated to the plasma membrane
